This series in a line: LogP, flask shaking method (OECD guideline, n-octanol/water). Conditions: 1-octanol-water partition coefficient; for logP: read-out: LogP of the poorly water-soluble functional component. The class given is physicochemical. From the text:
Here, LogP is a common logarithmic value of a 1-octanol-water or 1-octanol-buffer partition coefficient of a chemical substance. In the present specification, LogP is a value measured by a flask shaking method based on OECD GUIDELINE FOR THE TESTING OF CHEMICALS, “Partition Coefficient (n-octanol/water): Shake Flask Method”. A chemical substance having a higher LogP has a higher degree of lipophilicity. In other words, a chemical substance having a higher LogP has a higher degree of fat-solubility.

Consider `Cc1c(C)c2c(c(C)c1O)CCC(C)(CCCC(C)CCCC(C)CCCC(C)C)O2` (racemic) [tocopherol, DL-α-Tocopherol], for which the “LogP of the poorly water-soluble functional component” value was 8.84. `CC1CCC(C(C)C)C(O)C1` (single isomer, unassigned; (-)) [menthol, (−)-Menthol]: the logP is 2.68. The same measure, in the same setting: in the case of `COC1=C(OC)C(=O)C(C/C=C(\C)CC/C=C(\C)CC/C=C(\C)CC/C=C(\C)CC/C=C(\C)CC/C=C(\C)CC/C=C(\C)CC/C=C(\C)CC/C=C(\C)CCC=C(C)C)=C(C)C1=O` [CoQ10, coenzyme Q10] it was 11; in that of `Clc1ccc(C(c2ccc(Cl)cc2)C(Cl)(Cl)Cl)cc1` [DDT, dichlorodiphenyltrichloroethane], 6.5. The same measure, in the same setting: the result for `COc1cc(/C=C/C(=O)CC(=O)/C=C/c2ccc(O)c(OC)c2)ccc1O` [curcumin, Curcumin] reads 3.62. For the compound `COc1ccc2c(c1)c(CC(=O)O)c(C)n2C(=O)c1ccc(Cl)cc1` [indomethacin, Indomethacin], the “LogP of the poorly water-soluble functional component” value is recorded as 4.25 and the logP is 4.25.

On to `CC(=O)O[C@H]1C(=O)[C@@]2(C)[C@H]([C@H](OC(=O)c3ccccc3)[C@]3(O)C[C@H](OC(=O)[C@H](O)[C@@H](NC(=O)c4ccccc4)c4ccccc4)C(C)=C1C3(C)C)[C@]1(OC(C)=O)CO[C@@H]1C[C@@H]2O` [paclitaxel, Paclitaxel], for which the logP came to 3.2. The same measure, in the same setting: the result for `C[C@]12CC[C@H]3[C@@H](CCC4=CC(=O)CC[C@@]43C)[C@@H]1CC[C@@H]2O` [testosterone, Testosterone] reads 2.99. On to Tocotrienol, for which the “LogP of the poorly water-soluble functional component” value turned out to be 7.68.

(Values after patent US20220346372A1, “Compositions For Preparing Microemulsion, Microemulsion, Method For Producing Composition And Microemulsion, And Use Of Mircoemulsion” (Moresco Corporation, priority 2019, published 2022).)
